Reference: US12370143B2, “Compound or salt thereof and lipid particles” (FUJIFILM Corporation, priority 2018, dated 2025)

Legend:
[1] = Particle size of nucleic acid lipid particles (Luc2-siRNA); format: physicochemical; conditions: compound/DSPC/cholesterol/DMG-PEG2000 50/10/38.5/1.5
Procedure: By using the dispersion liquid of lipid particles as it was, the particle size of the lipid particles was measured using a zeta potential/particle size measurement system ELS-Z2 (Otsuka Electronics Co., Ltd.).
(§1) The compounds described in Table 2, L-α-distearoylphosphatidylcholine (trade name: COATSOME® MC-8080; NOF corporation), cholesterol (trade name: Choesterol HP; NIPPON FINE CHEMICAL CO., LTD.), and 1,2-dimyristoyl-rac-glycero-3-(methylpolyoxyethylene 2000) (hereinafter, called DMG-PEG2000) (trade name: SUNBRIGHT® GM-020; NOF corporation) were dissolved in ethanol at a molar ratio of 50/10/38.5/1.5 such that the total lipid concentration became 20 mmol/L, thereby obtaining an oil phase.
(§2) An aqueous nucleic acid solution obtained by dissolving 5 mg of Luc2-siRNA having the sequence described in Biomacromolecules (2013) 14, p. 3905 in 1 mL of sterile water was diluted with 10 mmol/L acetate buffer having a pH 4 such that the nucleic acid concentration became 19.7 μmol/L, thereby obtaining a water phase. Then, the water phase and the oil phase were mixed together by a micromixer (see JP5288254B) using a syringe pump such that the volume ratio of water phase:oil phase became 3:1 (final ratio of siRNA/lipid=339 (mol/mol)), and the mixed solution was diluted 2× with PBS, thereby obtaining a dispersion liquid of nucleic acid lipid particles. The dispersion liquid was dialyzed (Slide-A-Lyzer G2, MWCO: 10 kD, Thermo Fisher Scientific) using a phosphate buffered saline such that ethanol was removed, thereby obtaining nucleic acid lipid particles.
The particle size of the nucleic acid lipid particles was measured by the same method as that in <Preparation of lipid particles>.

[2] = Encapsulation rate of siRNA in nucleic acid lipid particles (Luc2-siRNA); format: physicochemical; conditions: compound/DSPC/cholesterol/DMG-PEG2000 50/10/38.5/1.5
Procedure: as §1, §2
A 3 mol/L aqueous sodium acetate solution (30 μL) and 9 μL of glycogen were added to 60 μL of the lipid particles retaining nucleic acids, and then 1.5 mL of ethanol was added thereto such that only the nucleic acids were precipitated while the lipid was dissolved. Then, the supernatant was removed by centrifugation. After the precipitates were air-dried for 15 minutes or longer, water was added thereto such that the precipitates were redissolved, and the concentration thereof was measured using Nanodrop NF1000 (Thermo Fisher Scientific), thereby quantifying the total nucleic acid concentration.
The nucleic acid concentration was quantified using a Quant-iT RiboGreen RNA Assay Kit (Thermo Fisher Scientific) according to the protocol. First, a 20×TE buffer included in the above kit was diluted with water, thereby obtaining a 1×TE buffer. TE represents Tris/EDTA (ethylenediaminetetraacetic acid). In order to quantify only the nucleic acid in the outer water phase, the dispersion liquid of lipid particles retaining nucleic acids was diluted 10,000× with the 1×TE buffer.
The 10,000× diluted dispersion liquid of lipid particles (100 μL) was put in a 96-well plate, then 100 μL of a RiboGreen reagent (reagent included in the Quanti-iT Ribogreen RNA Assay Kit described above) diluted 2000× with the 1×TE buffer was added to a sample, and fluorescence (excitation wavelength: 485 nm, fluorescence wavelength: 535 nm) was measured using a plate reader Infinit EF200 (TECAN), thereby quantifying the nucleic acid concentration in the outer water phase.
By using the total nucleic acid concentration obtained through the above steps and the quantified nucleic acid concentration in the outer water phase, the nucleic acid encapsulation rate of the nucleic acid lipid particles was calculated according to the following Equation. Nucleic acid encapsulation rate (%)=(total nucleic acid concentration−nucleic acid concentration in outer water phase)/total nucleic acid concentration×100 The results are shown in Table 2.

Row | Particle size (nm) [1] [nm] | Nucleic acid encapsulation rate [2] [%] | SMILES
1 | 142 | 82 | CCCCCCCCC(CCCCCC)COC(=O)CCCCCCCCC(CCCCCC)OC(=O)OCCN(CCO)CCN(CC)CC (stereo not shown) [Example 97, 2-Hexyldecyl 3-ethyl-12-hexyl-6-(2-hydroxyethyl)-10-oxo-9,11-dioxa-3,6-diazahenicosan-21-oate]
2 | 291 | 41 | CCCCCCCCC(CCCCCC)COC(=O)CCCCCCCCC(CCCCC)OC(=O)OCCN(CCO)CCN(CC)CC (stereo not shown) [Example 131, 2-Hexyldecyl 3-ethyl-6-(2-hydroxyethyl)-10-oxo-12-pentyl-9,11-dioxa-3,6-diazahenicosan-21-oate]
3 | 74.3 | 80 | CCCCC/C=C\C/C=C\CCCCCCCCC(CCCCCCCC/C=C\C/C=C\CCCCC)OC(=O)OCCN(CC)CCN(CCC)CCC [Example 49, 2-((2-(Dipropylamino)ethyl)(ethyl)amino)ethyl((6Z,9Z,28Z,31Z)-heptatriaconta-6,9,28,31-tetraen-19-yl)carbonate]
4 | 73.8 | 78 | CCCCC/C=C\C/C=C\CCCCCCCCN(CCCCCCCC/C=C\C/C=C\CCCCC)C(=O)OCCN(C)CCN1CCOCC1 [Example 5, 2-(Methyl(2-morpholinoethyl)amino)ethyl di((9Z,12Z)-octadeca-9,12-diene-1-yl)carbamate]
5 | 88.6 | 69 | CCCCCCCC/C=C\CCCCCCCCOC(=O)CCCC(CCCCCC)OC(=O)OCCN(CCN(CC)CC)C(C)C (stereo not shown) [Example 115, (Z)-octadec-9-en-1-yl 3-ethyl-12-hexyl-6-isopropyl-10-oxo-9,11-dioxa-3,6-diazahexadecan-16-oate]
6 | 113.5 | 78 | CCCCC/C=C\C/C=C\CCCCCCCCN(CCCCCCCC/C=C\C/C=C\CCCCC)C(=O)OCCN(CC)CCN1CCOCC1 [Example 6, 2-(Ethyl(2-morpholinoethyl)amino)ethyl di((9Z,12Z)-octadeca-9,12-dien-1-yl)carbamate]
7 | 72.9 | 88 | CCCCCCCCC(CCCCCC)COC(=O)CCCCC(CCCCCC)OC(=O)OCCN(CCN(CC)CC)C(C)C (stereo not shown) [Example 96, 2-Hexyldecyl 3-ethyl-12-hexyl-6-isopropyl-10-oxo-9,11-dioxa-3,6-diazaheptadecan-17-oate]
8 | 98.4 | 76 | CCCCCCCCC(CCCCCC)COC(=O)CCCCCCCCC(CCCCC)OC(=O)OCCN(CCOC(=O)CCCCCCC)CCN(CC)CC (stereo not shown) [Example 132, 2-Hexyldecyl 3-ethyl-6-(2-(octanoyloxy)ethyl)-10-oxo-12-pentyl-9,11-dioxa-3,6-diazahenicosan-21-oate]
9 | 169.3 | 60 | CCCCCCC(CCCC)COC(=O)CCCCCCCCC(CCCCCC)OC(=O)OCCN(CCO)CCCN(CC)CC (stereo not shown) [Example 90, 2-Butyloctyl 3-ethyl-13-hexyl-7-(2-hydroxyethyl)-11-oxo-10,12-dioxa-3,7-diazadocosan-22-oate]
10 | 140.3 | 88 | CCCCCCCCCOC(=O)CCCCCCCN(CCCCCCCC(=O)OCCCCCCCCC)C(=O)OCCN(C)CCN(C)C [Example 13, Nonyl 2,5-dimethyl-10-(8-(nonyloxy)-8-oxooctyl)-9-oxo-8-oxa-2,5,10-triazaoctadecan-18-oate]

Second part, the compound before the results:

Row | SMILES | Particle size (nm) [1] [nm] | Nucleic acid encapsulation rate [2] [%]
11 | CCCCC/C=C\C/C=C\CCCCCCCCC(CCCCCCCC/C=C\C/C=C\CCCCC)OC(=O)OCCN(CCCC)CCN(CC)CC [Example 39, 2-(Butyl(2-(diethylamino)ethyl)amino)ethyl((6Z,9Z,28Z,31Z)-heptatriaconta-6,9,28,31-tetraen-19-yl)carbonate] | 78.3 | 88
12 | CCCCCCCCC(CCCCCC)COC(=O)CCC(CCCCCC)OC(=O)OCCN(CCN(CC)CC)C(C)C (stereo not shown) [Example 114, 2-Hexyldecyl 3-ethyl-12-hexyl-6-isopropyl-10-oxo-9,11-dioxa-3,6-diazapentadecan-15-oate] | 80.1 | 69
13 | CCCCC/C=C\C/C=C\CCCCCCCC(=O)OCC(COC(=O)CCCCCCC/C=C\C/C=C\CCCCC)OC(=O)OCCN(CC)CCN(C)C [Example 35, 2-(((2-((2-(Dimethylamino)ethyl)(ethyl)amino)ethoxy)carbonyl)oxy)propane-1,3-diyl(9Z,9′Z,12Z,12′Z)-bis(octadeca-9,12-dienoate)] | 80.1 | 87
14 | CCCCCCC(CCCC)COC(=O)CCCC(CCCCCC)OC(=O)OCCN(CCN(CC)CC)C(C)C (stereo not shown) [Example 81, 2-Butyloctyl 3-ethyl-12-hexyl-6-isopropyl-10-oxo-9,11-dioxa-3,6-diazahexadecan-16-oate] | 102.6 | 49
15 | CCCCCCC(CCCC)COC(=O)CCCC(CCCCCC)OC(=O)OCCN(CC)CCN(CC)CC (stereo not shown) [Example 80, 2-butyloctyl 3,6-diethyl-12-hexyl-10-oxo-9,11-dioxa-3,6-diazahexadecan-16-oate] | 98.7 | 61
16 | CCCCCCCCC(CCCCCC)COC(=O)CCCCCCCCC(CCCCC)OC(=O)OCCN(CCN(CC)CC)C(C)C (stereo not shown) [Example 127, 2-Hexyldecyl 3-ethyl-6-isopropyl-10-oxo-12-pentyl-9,11-dioxa-3,6-diazahenicosan-21-oate] | 80.7 | 71
17 | CCCCC/C=C\C/C=C\CCCCCCCCC(CCCCCCCC/C=C\C/C=C\CCCCC)OC(=O)OCCN(CCN(C)C)C1CCCCC1 [Example 32, 2-(Cyclohexyl(2-(dimethylamino)ethyl)amino)ethyl((6Z,9Z,28Z,31Z)-heptatriaconta-6,9,28,31-tetraen-19-yl)carbonate] | 71.6 | 78
18 | CCCCC/C=C\C/C=C\CCCCCCCCC(CCCCCCCC/C=C\C/C=C\CCCCC)OC(=O)OCCN(CC)CCN1CCOCC1 [Example 22, 2-(Ethyl(2-morpholinoethyl)amino)ethyl((6Z,9Z,28Z,31Z)-heptatriaconta-6,9,28,31-tetraen-19-yl)carbonate] | 69.3 | 69
19 | CCCCC/C=C\C/C=C\CCCCCCCCN(CCCCCCCC/C=C\C/C=C\CCCCC)C(=O)OCCCN(C)CCN(C)C [Example 2, 3-((2-(Dimethylamino)ethyl)(methyl)amino)propyl di((9Z,12Z)-octadeca-9,12-dien-1-yl)carbamate] | 80.5 | 78
20 | CCCCCCCC/C=C\CCCCCCCCN(CCCCCCCCC)C(=O)OCCN(C)CCN(C)C [Example 15, 2-((2-(Dimethylamino)ethyl)(methyl)amino)ethyl(Z)-nonyl(octadec-9-en-1-yl)carbamate] | 122.8 | 83
21 | CCCCC/C=C\C/C=C\CCCCCCCCC(CCCCCCCC/C=C\C/C=C\CCCCC)OC(=O)OCCN(CCO)CCN(C)C [Example 28] | 76.4 | 75
22 | CCCCCCC(CCCC)COC(=O)CCCCC(CCCCCC)OC(=O)OCCN(CCN(CC)CC)C(C)C (stereo not shown) [Example 95, 2-Butyloctyl 3-ethyl-12-hexyl-6-isopropyl-10-oxo-9,11-dioxa-3,6-diazaheptadecan-17-oate] | 95.5 | 83
23 | CCCCCC/C=C\COC(=O)CCCCCCCN(CCCCCCCC(=O)OC/C=C\CCCCCC)C(=O)OCCN(C)CCN(C)C [Example 11, (Z)-non-2-en-1-yl 2,5-dimethyl-10-(8-(((Z)-non-2-en-1-yl)oxy)-8-oxooctyl)-9-oxo-8-oxa-2,5,10-triazaoctadecan-18-oate] | 217.2 | 84
